# Assays:
# Assay type in all cases: cell-based
# [1] = test system: Enterobacteriaceae, z.B. Escherichia coli, Pseudomonas aeruginosa und Proteus morganii; assay: In vitro antibacterial activity against gram-negative rods; conditions: within the stated concentration range, 1 bis 64 y/ml
# Excerpt: (§1) Die neuen erfindungsgemässen Verbindungen der Formel I zeichnen sich vor allem durch ihre wertvollen pharmakologischen Eigenschaften aus: so besitzen sie gemäss den Resultaten in vitro antibiotische, insbesondere antibakterielle Eigenschaften, wie z.B. einerseits gegen grammpositive Kokken, wie Staphylococcus aureus, (im getesteten Konzentrationsbereich 0,005 bis 128 y/ml),andererseits gegen grammnegative Stäbchenbakterien, wie Enterobacteriaceae, z.B. Escherichia coli, Pseudomonas aeruginosa und Proteus morganii (im getesteten Konzentrationsbereich von 1 bis 64 y/ml), sowie gegen Mycobacterium tuberculosis (im getesteten Konzentrationsbereich von 0,48 bis 1,9 y/ml). […] (Für die Testresultate siehe auch Tabelle -1.)
# (§2) Auch die neuen erfindungsgemässen Verbindungen der Formeln V und VI zeichnen sich durch analoge wertvolle pharmakologische Eigenschaften aus, d.h. sie besitzen gemäss den Resultaten in vitro antibiotische, insbesondere antibakterielle Eigenschaften, die sich bezüglich des Anwendungsbereichs sowie der getesteten effektiven Konzentrationen den Verbindungen der Formel I praktisch gleichen. […] (Für die Testresultate siehe auch Tabelle 2.)
# Staphylococcus aureus = assay: In vitro antibacterial activity against gram-positive cocci; conditions: at (at or below) the lowest limit of the tested concentration range, 0,005 y/ml
# Excerpt: as §1, §2
# Escherichia coli 205 = assay: Agar dilution MIC in DST agar (Ericsson and Sherris); conditions: for MIC Esch. 205: in vitro; for MIC: Escherichia coli, 205, in vitro, read-out: MIC Esch. 205
# Method in brief: (§3)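 Read-out: minimal growth-inhibiting concentration (MIC), µg/ml. Compounds tested in vitro by agar dilution; endpoint is lowest level that still prevents visible growth.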
# Proteus morganii 1518 = assay: as above; conditions: for MIC Prot. 1518: in vitro; for MIC: Morganella morganii, 1518, in vitro, read-out: MIC Prot. 1518
# Method in brief: as §3
# [2] = test system: Salmonella Typhimurium 277; assay: as above; conditions: in vitro; for MIC: Salmonella enterica, TYPHIMURIUM, read-out: MIC Salm. 277
# Method in brief: as §3
# [3] = test system: Pseudomonas aeruginosa K 799/61; assay: as above; conditions: for MIC Pseu. 799: in vitro, agar dilution, DST agar; for MIC: Pseudomonas aeruginosa, K799/61, read-out: MIC Pseu. 799
# Method in brief: as §3
# Proteus morganii 2359 = assay: as above; conditions: for MIC Prot. 2359: in vitro; for MIC: Morganella morganii, 2359, in vitro, read-out: MIC Prot. 2359
# Method in brief: as §3
# [4] = test system: Staphylococcus aureus 2999; assay: as above; conditions: for MIC Staph. 2999: in vitro; for MIC: Staphylococcus aureus, 2999, in vitro, read-out: MIC Staph. 2999
# Method in brief: as §3
# Escherichia coli 2018 = assay: as above; conditions: for MIC Esch. 2018: in vitro; for MIC: Escherichia coli, 2018, in vitro, read-out: MIC Esch. 2018
# Method in brief: as §3
# [5] = test system: Staphylococcus aureus 10B; assay: as above; conditions: in vitro; for MIC: Staphylococcus aureus, 10B, read-out: MIC Staph. 10B
# Method in brief: as §3
# [6] = test system: Mycobacterium tuberculosis; assay: as above; conditions: in vitro; for MIC: Mycobacterium tuberculosis, read-out: MIC Myc. tub.
Compound,Hemmung der Enterobacterien [1],Hemmwirkung auf Staphylococcus aureus (Staphylococcus aureus),MIC Esch. 205 (Escherichia coli 205) [µg/mL],MIC Prot. 1518 (Proteus morganii 1518) [µg/mL],MIC Salm. 277 [2] [µg/mL],MIC Pseu. 799 [3] [µg/mL],MIC Prot. 2359 (Proteus morganii 2359) [µg/mL],MIC Staph. 2999 [4] [µg/mL],MIC Esch. 2018 (Escherichia coli 2018) [µg/mL],MIC Staph. 10B [5] [µg/mL],MIC Myc. tub. [6] [µg/mL],MIC (Escherichia coli 205) [µg/mL],MIC (Proteus morganii 1518) [µg/mL],MIC [2] [µg/mL],MIC [3] [µg/mL],MIC (Proteus morganii 2359) [µg/mL],MIC [4] [µg/mL],MIC (Escherichia coli 2018) [µg/mL],MIC [5] [µg/mL],MIC [6] [µg/mL]
3-(4-Methylpiperazinyl)-methylenamino-Rifamycin S [Verbindung 88],wirksam hemmen,deutliche Hemmwirkung,–,–,–,–,–,–,–,–,–,–,–,–,–,–,–,–,–,–
3-(4-Phenylpiperazinyl)methylenamino-Rifamycin S [Verbindung 91],wirksam hemmen,deutliche Hemmwirkung,–,–,–,–,–,–,–,–,–,–,–,–,–,–,–,–,–,–
3-Indolinylmethylenamino-Rifamycin S [Verbindung 82],wirksam hemmen,deutliche Hemmwirkung,–,–,–,–,–,–,–,–,–,–,–,–,–,–,–,–,–,–
3-Thiomorpholinylmethylenamino-Rifamycin S [Verbindung 87],wirksam hemmen,deutliche Hemmwirkung,–,–,–,–,–,–,–,–,–,–,–,–,–,–,–,–,–,–
"4-(1-Perhydroazocinyl)-imidazolo[4,5-c]rifamycin SV [Verbindung 28]",–,–,4,2,16,8,2,0.005,4,0.005,0.97,–,–,–,–,–,–,–,–,–
"4-Pyrrolidinyl-imidazolo[4,5-c]rifamycin SV [Verbindung 19]",wirksam hemmen,deutliche Hemmwirkung,2,4,8,8,4,0.005,4,0.005,0.48,–,–,–,–,–,–,–,–,–
"4-[8-Aza-1,4-dioxaspiro-(4,5)-8-decyl]-imidazolo[4,5-c]-rifamycin SV [Verbindung 25]",–,–,8,8,16,16,8,0.005,16,0.005,0.97,–,–,–,–,–,–,–,–,–
"COC1C=COC2(C)Oc3c(C)c(O)c4c(O)c(c5nc(N(C)C)[nH]c5c4c3C2=O)NC(=O)C(C)=CC=CC(C)C(O)C(C)C(O)C(C)C(OC(C)=O)C1C (centres unmarked) [Verbindung 1, 4-Dimethylamino-imidazolo[4,5-c]rifamycin SV]",wirksam hemmen,deutliche Hemmwirkung,–,–,–,–,–,–,–,–,–,8,4,16,2,8,0.005,4,0.005,0.97
"COC1C=COC2(C)Oc3c(C)c(O)c4c(O)c(c5nc(N6CCN(CC7CCCCC7)CC6)[nH]c5c4c3C2=O)NC(=O)C(C)=CC=CC(C)C(O)C(C)C(O)C(C)C(OC(C)=O)C1C (centres unmarked) [Verbindung 5, 4-(4-Cyclohexylmethyl-piperazinyl)-imidazolo[4,5-c]rifamycin SV]",–,–,–,–,–,–,–,–,–,–,–,4,8,8,16,16,0.005,4,0.005,1.9
"CCN(CC)CCN(CC)c1nc2c([nH]1)c1c(O)c3c(O)c(C)c4c(c32)C(=O)[C@@](C)(O/C=C/[C@H](OC)[C@@H](C)[C@@H](OC(C)=O)[C@H](C)[C@H](O)[C@H](C)[C@@H](O)[C@@H](C)/C=C/C=C(/C)C(=O)N1)O4 [Verbindung 18, 4-[N-Ethyl-N-(2-diethylaminoethyl)-amino]-imidazolo-[4,5-c]rifamycin SV]",–,–,–,–,–,–,–,–,–,–,–,2,4,16,8,2,0.005,4,0.005,0.48
"C#CCN1CCN(c2nc3c([nH]2)c2c(O)c4c(O)c(C)c5c(c43)C(=O)[C@@](C)(O/C=C/[C@H](OC)[C@@H](C)[C@@H](OC(C)=O)[C@H](C)[C@H](O)[C@H](C)[C@@H](O)[C@@H](C)/C=C/C=C(/C)C(=O)N2)O5)CC1 [Verbindung 49, 4-(4-Propargylpiperazinyl)-imidazolo[4,5-c]rifamycin SV]",–,–,–,–,–,–,–,–,–,–,–,8,8,32,8,8,0.001,32,0.001,–
"CO[C@H]1/C=C/O[C@@]2(C)Oc3c(C)c(O)c4c(O)c(c5nc(N6CCN(C7CCCC7)CC6)[nH]c5c4c3C2=O)NC(=O)/C(C)=C\C=C\[C@H](C)[C@H](O)[C@@H](C)[C@@H](O)[C@@H](C)[C@H](OC(C)=O)[C@@H]1C [Verbindung 50, 4-(4-Cyclopentylpiperazinyl)-imidazolo[4,5-c]rifamycin SV]",–,–,–,–,–,–,–,–,–,–,–,8,8,32,8,8,0.01,8,0.01,–
"CO[C@H]1/C=C/O[C@@]2(C)Oc3c(C)c(O)c4c(O)c(c5nc(N6CCN(c7cccc(C(F)(F)F)c7)CC6)[nH]c5c4c3C2=O)NC(=O)/C(C)=C\C=C\[C@H](C)[C@H](O)[C@@H](C)[C@@H](O)[C@@H](C)[C@H](OC(C)=O)[C@@H]1C [Verbindung 53, 4-[4-(3-Trifluormethylphenyl)-piperazinyl]-imidazolo-[4,5-c]rifamycin SV]",–,–,–,–,–,–,–,–,–,–,–,8,2,32,32,8,0.01,8,0.01,–
"CO[C@H]1/C=C/O[C@@]2(C)Oc3c(C)c(O)c4c(O)c(c5nc(N6CCN(CC7CC7)CC6)[nH]c5c4c3C2=O)NC(=O)/C(C)=C\C=C\[C@H](C)[C@H](O)[C@@H](C)[C@@H](O)[C@@H](C)[C@H](OC(C)=O)[C@@H]1C [Verbindung 54, 4-(4-Cyclopropylmethylpiperazinyl)-imidazolo[4,5-c]rifamycin SV]",–,–,–,–,–,–,–,–,–,–,–,8,8,32,16,8,0.005,8,0.005,–
"CO[C@H]1/C=C/O[C@@]2(C)Oc3c(C)c(O)c4c(O)c(c5nc(N6CCN(CC7CCCC7)CC6)[nH]c5c4c3C2=O)NC(=O)/C(C)=C\C=C\[C@H](C)[C@H](O)[C@@H](C)[C@@H](O)[C@@H](C)[C@H](OC(C)=O)[C@@H]1C [Verbindung 55, 4-(4-Cyclopentylmethylpiperazinyl)-imidazolo[4,5-c]-rifamycin SV]",–,–,–,–,–,–,–,–,–,–,–,8,2,32,32,2,0.001,1,0.01,–
"CO[C@H]1/C=C/O[C@@]2(C)Oc3c(C)c(O)c4c(O)c(c5nc(N6CCN(Cc7ccccc7)CC6)[nH]c5c4c3C2=O)NC(=O)/C(C)=C\C=C\[C@H](C)[C@H](O)[C@@H](C)[C@@H](O)[C@@H](C)[C@H](OC(C)=O)[C@@H]1C [Verbindung 57, 4-(4-Benzylpiperazinyl)-imidazolo[4,5-c]rifamycin SV]",–,–,–,–,–,–,–,–,–,–,–,8,4,16,16,4,0.005,4,0.005,0.97
"CO[C@H]1/C=C/O[C@@]2(C)Oc3c(C)c(O)c4c(O)c(c5nc(N6CCN(c7ccccn7)CC6)[nH]c5c4c3C2=O)NC(=O)/C(C)=C\C=C\[C@H](C)[C@H](O)[C@@H](C)[C@@H](O)[C@@H](C)[C@H](OC(C)=O)[C@@H]1C [Verbindung 59, 4-[4-(2-Pyridyl)-piperazinyl]-imidazolo[4,5-c]rifamycin SV]",–,–,–,–,–,–,–,–,–,–,–,8,2,32,8,8,0.01,8,0.01,–
"CO[C@H]1/C=C/O[C@@]2(C)Oc3c(C)c(O)c4c(O)c(c5nc(N6CCN(Cc7ccccn7)CC6)[nH]c5c4c3C2=O)NC(=O)/C(C)=C\C=C\[C@H](C)[C@H](O)[C@@H](C)[C@@H](O)[C@@H](C)[C@H](OC(C)=O)[C@@H]1C [Verbindung 60, 4-[4-(2-Pyridylmethyl)-piperazinyl]-imidazolo[4,5-c]-rifamycin SV]",–,–,–,–,–,–,–,–,–,–,–,32,32,128,64,32,0.02,32,0.02,–

# Reference: EP0049683A2, “Imidazo-rifamycines, process for their preparation, pharmaceutical preparations containing them and their use” (CIBA-GEIGY AG, priority 1980, dated 1982)
